As usually defined, the inhibition is the relative decrease from the control value, in per cent. By solubility (kinetic) is commonly meant the concentration staying in solution when a stock, usually in DMSO, is diluted into the medium. By IC50 is commonly meant the concentration that inhibits the measured activity by half.

Data on 5 molecules can be found in patent US20250115578A1, “AROMATIC FUSED RING NAV1.8 INHIBITOR, AND USE THEREOF” (CHENGDU KANGHONG PHARMACEUTICAL CO., LTD., priority 2022, published 2025).

≈ marks a conversion by molar mass, not a printed value. Where two headings read alike, the source gives them in different places.

The target in one data set is hNav1.8 (Homo sapiens (Human), UniProt Q9Y5Y9). The data set can be described thus: Manual patch clamp, Method 1 (CHO cell line stably expressing hNav1.8). Format: cell-based. As to conditions: 100 nM; Method 1, CHO-hNav1.8; read-out: Inhibition rate of hNav1.8. An excerpt:
The patch clamp technique is known as the “gold standard” for studying ion channels, and it uses glass microelectrodes to seal the cell membrane to measure the currents of various membrane channel. […] Patch clamp technology can evaluate the inhibition strength of different compounds on different states of Navs by measuring the changes of membrane channel currents after different compounds bind to different states of Navs.
The representative compounds of the present invention used stable CHO or HEK293 cell lines transfected with specific ion channels to measure the effect of the compounds on Nav1.8 currents by manual patch clamp test, to evaluate their inhibition strength.
The assay protocol of manual patch clamp is as follows:
CHO cell lines with stable expression of hNav1.8 were cultured in F12 medium containing 10% fetal bovine serum at a constant temperature of 37° C., and the carbon dioxide concentration was maintained at 5%. The old culture medium was removed and washed once with PBS, then 1 mL 0.25%-Trypsin-EDTA solution was added and incubated at 37° C. for 1 min. When the cells were detached from the bottom of the dish, 5 mL of the complete medium preheated at 37° C. was added, and the aggregated cells were separated by gently blowing with a straw. The cell suspension was transferred into a sterile centrifuge tube and centrifuged at 1000 rpm for 5 min to collect cells. The cells were then inoculated into a cell culture dish with a diameter of 6 cm (2.5×10^5 cells/petri dish, 5 mL medium) for expansion or maintenance.
In order to maintain the electrophysiological activity of the cells, the cell density must be less than 80%.
The cells were separated with 0.25%-Trypsin-EDTA before the assay, and 5×10^3 cells were seeded on a cover slip and cultured in a 24-well plate (final volume: 500 μL) for 18 h. Then the assay was conducted.
The compounds prepared in the examples of the present invention were dissolved in dimethyl sulfoxide (DMSO) and prepared into DMSO stock solution with a concentration of 10 mM for assay. And it was diluted to various concentrations with extracellular solution (140 mM NaCl, 3.5 mM KCl, 1 mM MgCl2, 2 mM CaCl2), 10 mM Glucose, 10 mM HEPES, 1.25 mM NaH2PO4, pH=7.4 regulated by NaOH), and the final concentration of DMSO in each compound sample was 0.10% or less.
A capillary glass pipette (BF150-86-10, Sutter Instruments) was pulled into a recording electrode with a micropipette puller (P97, Sutter Instruments). The micromanipulator (MP285, Sutter Instruments) was manipulated under an inverted microscope (IX71, Olympus) to make the recording electrode contact the cell and negative pressure suction was applied to achieve a GQ seal. Then, rapid capacitance compensation was performed, and negative pressure was continued, cell membrane was broken by suction, and whole cell recording mode was formed. Then the slow capacitance was compensated and the membrane capacitance and series resistance were recorded without leakage compensation. When the whole cell recording current was stabilized, dosing was initiated, and the next concentration was detected after acting 5 minutes of each drug concentration. Multiple cells were independently repeated during the recording period. All electrophysiological assays were performed at room temperature. Specifically, 6 concentrations (measuring IC50) or 2 concentrations (preliminary screening) were set for each compound, and the percentage of inhibition of sodium channels was determined by calculating the relative percentage of peak current generated before and after each concentration compound treated cells, and the IC50 value or percentage of inhibition at a specific concentration was calculated using IGOR pro software.
(In general: The patch-clamp technique gives a direct electrical read-out from membranes.)

The nature of data set [1]: Assay of kinetic solubility. Conditions: aqueous buffer, kinetic from dmso stock, pH 3.5 phosphate buffer, 25° C. The data set is classed as physicochemical. The protocol:
The stock solutions of the test compound and the standard progesterone were prepared in DMSO at the concentration of 10 mM.
30 μL of stock solutions at 10 mM of the test compounds and standard substance were placed in order into their proper 96-well plate. 970 μL phosphate buffer at the specified pH was added to the proper vial of the sample plate. The assay was performed in duplicate. A stirring stick was added to each vial and the teflon/silicone plug was capped. The sample tray was then placed in the Eppendorf Thermomixer Comfort and shaken at 1100 RPM at 25° C. for 2 hours. After 2 hours, plugs were removed, a big magnet was used to remove the stirring sticks, and samples were transferred from the sample plate to the filter plate. Vacuum pump was used to create negative pressure and filtered the samples. Transferred 5 μL of the filtrate to the new sample plate, then added 5 μL DMSO and 490 μL water/acetonitrile (V/V=1/1) to dilute the solvent. The dilution factor may be adjusted according to the solubility values of the substances to be tested or the strength of its LC-MS signal response.
From the 10 mM DMSO stock solution, 15 μL of that was transferred into the empty plate and 485 μL DMSO was added to prepare a 300 μM standard solution. From the 300 μM standard solution plate, 5 μL of that was transferred to another empty plate and 5 μL phosphate buffer at specified pH and 490 μL water/acetonitrile (V/V=1/1) dilution solvent were added to the standard solution to get a final concentration of 3 μM. The concentration of the standard solution may be adjusted according to the strength of its LC-MS signal response.
The sample plate was placed into the sample tray of the automatic sampler and the samples were evaluated by LC-MS/MS analysis.
All calculations were carried out by Microsoft Excel.
The sample filtrate was analyzed and quantified against a standard of known concentrations using LC-MS spectral peaks to identify and quantify. The solubility values of the control drug and the compounds to be tested were calculated as the following formula: • [Sample]: concentration of the sample • AREASample: peak area of the sample • INJ VOLStd: standard sample injection volume • DFSample: sample dilution factor • [STD]: standard substance concentration • AREAStd: peak area of standard substance • INJ VOLSample: sample injection volume

Data set [2] deals with postoperative pain model in rats. In words: Efficacy test in postoperative pain model in rats (mechanical allodynia, PWT). Format: in vivo, Sprague-Dawley male rats. Conditions: single oral 30 mg/kg, at 2 h and 4 h after administration. The protocol: Sprague-Dawley male rats, purchased from Zhejiang Vital River Laboratory Animal Technology Co., LTD
Compounds of the example 10, 14, 16, 31 of the invention were weighted and prepared into solutions of 3 mg/mL using 5% DMSO (Anhui Senrise Technologies Co., Ltd)+30% Solutol HS15 (Beijing Ouhe Technology Co., LTD.)+65% water for injection, and administered at a volume of 10 mL/kg by gavage. The dosage was 30 mg/kg.
Animals were anesthetized with Zoletil 50+ Xylazine Hydrochloride (20 mg/kg+8 mg/kg, intraperitoneally injected). The surgical area on the plantar skin of the left hind paw was disinfected three times with iodophor and 70% ethanol, and the surgery was started after the skin was dry.
A longitudinal incision about 1 cm was made towards the toes starting from 0.5 cm away from the heel of the left hind paw. After the skin was incised, the flexor digitorum brevis was raised and longitudinal blunt injury was caused. After hemostasis by pressing, the wound was sutured. After surgery, animals were placed on an electric warm pad and 5 mL of physiological saline was injected subcutaneously to prevent dehydration. 24 h after modeling, all animals (including the normal control group) were tested for base mechanical allodynia (PWT). The modeling animals without mechanical hypersensitivity (PWT greater than 5 g) were excluded and […] were selected and randomly divided into 5 groups, with 9 animals in each group except 5 in the normal group (negative control group).
The animals were weighed and administered orally at a volume of 10 mL/kg. Except normal control animals, other animals were given a single dose of compounds, and mechanical allodynia was performed by test fibers on all groups of animals at 1 h, 2 h and 4 h after dosing. The rats were placed individually in a plexiglass box with a grid at the bottom to ensure that the paws of the rats could be tested. The rats would acclimate for 15 minutes before the test. After the acclimation was completed, the test fibers were used to test on the plantar center of the rat's left hind paw. Pressed the test fiber vertically against the skin and applied force to bend the fiber for 6 to 8 seconds, with 5 second intervals between each test. The rapid withdrawal of the animal's paws during the test was recorded as a pain response. The animal's paw withdrawal when the fibers left the animal's skin was also recorded as a pain response. If the animal moves or walks around, it's not recorded as a pain response, and the test should be repeated.
Mechanical hyperalgesia was expressed as the paw withdrawal threshold (PWT) in the rat behavioral test, which was calculated according to the following formula:
50% response threshold (g)=(10^(Xf+kδ)/10,000 • Xf=final test fiber value used in the test • k=table value (Chaplan et al. 1994, page 62) • δ=mean deviation
Data were collected with excel software and analyzed with Prism 7.0 (Graph pad software, Inc.) software by two-way ANOVA followed by Dunnett multiple comparison test.

In another data set the target is Human Nav1.8 ion channel (Homo sapiens (Human), UniProt Q9Y5Y9). The data set can be described thus: Manual patch clamp, Method 2 (HEK293 cells stably expressing human Nav1.8, resting state). The data set is classed as cell-based. Conditions: Method 2, HEK293-hNav1.8, resting state, 1 μM TTX; read-out: IC50 inhibitory activity against hNav1.8.
A short description of data set [3]: Stability assay for human liver microsomes in vitro. As to conditions: 1 μM compound, 0.5 mg/mL liver microsomes, read-out: Human liver microsome stability T1/2. The data set is classed as in vitro ADME. The protocol: • Human liver microsomes, purchased from Corning or Xenotech, stored in a −80° C. refrigerator. • Nicotinamide adenine dinucleotide phosphate (NADPH), Chem-impex international, 00616 • Control compounds: testosterone, diclofenac, propafenone
• Water bath (HH-60, Guohua, Changzhou, China) • Pipette workstation (PP-550DS, Apricot, Covina, USA) • Centrifuge (5810R, Eppendorf, Hamburg, Germany) • Mass Spectrometer (Sciex API 4000, Singapore) • High Performance Liquid Chromatography (LC 20-AD, Shimadzu, Kyoto, Japan) • Sampler (ADDA, Apricot Designs, California, USA)
• Stock solution: 10 mM in DMSO • Working solution concentration preparation: 10 mM stock solution was diluted to 100 μM with 100% acetonitrile (organic phase content: 99% ACN, 1% DMSO)
Two 96-well incubation plates were named T60 incubation plate and NCF60 incubation plate.
445 μL microsomal working solution (liver microsomal protein concentration: 0.56 mg/mL) was added to the T60 and NCF60 incubation plates respectively, then the incubation plates above were placed in a water bath at 37° C. for pre-incubation approximately 10 minutes.
After the pre-incubation finished, 5 μL of the test compound working solution was added to the T60 and NCF60 incubation plates respectively, and mixed well. 50 μL potassium phosphate buffer was added to each well on the NCF60 incubation plate to start the reaction. 180 μL termination solution (acetonitrile solution containing 200 ng/mL tolbutamide and 200 ng/mL labetalol) and 6 uL working solution of NADPH regeneration system were added to the TO termination plate, and 54 μL samples were removed from the T60 incubation plate to the TO termination plate (TO sample generated). The reaction was initiated by adding 44 μL of NADPH regenerating system working solution per well on the T60 incubation plate. Only 54 μL microsomal working solution, 6 uL NADPH regeneration system working solution, and 180 μL termination solution were added to the Blank plate. Therefore, in the samples of the test or control compounds, the final reaction concentration of the compounds, testosterone, diclofenac and propafenone was 1 μM, the concentration of the liver microsomes was 0.5 mg/mL, and the final concentration of DMSO and acetonitrile in the reaction system was 0.01% (v/v) and 0.99% (v/v), respectively.
After incubation for an appropriate time (e.g. 5, 10, 20, 30, and 60 minutes), 180 μL of termination solution (acetonitrile solution containing 200 ng/mL tolbutamide and 200 ng/mL labetalol) was added to the sample hole of each termination plate, respectively. After that, 60 μL sample was removed from the T60 incubation plate to terminate the reaction.
All sample plates were shaken evenly and centrifuged at 3220×g for 20 min. Then 80 μL supernatant was taken from each well and diluted to 240 μL pure water for LC-MS/MS analysis.
All samples were injected for analysis.
Background: Liver microsomes are a subcellular fraction often used to study metabolism.

The next data set relates to postoperative toothache. As to conditions: phase II; cited from earlier work.
The test system of the next data set is CFA and SNL models. Conditions: cited from earlier work.
The test system of a further data set is animal models of pain. Conditions: carrageenan, CFA, CCI, SNL and acute mechanical pain models; cited from earlier work.
Data set [4] deals with STZ-induced diabetic neuropathic heat pain model. Conditions: cited from earlier work.

Chain of hNav1.8 (Q9Y5Y9 whole entry): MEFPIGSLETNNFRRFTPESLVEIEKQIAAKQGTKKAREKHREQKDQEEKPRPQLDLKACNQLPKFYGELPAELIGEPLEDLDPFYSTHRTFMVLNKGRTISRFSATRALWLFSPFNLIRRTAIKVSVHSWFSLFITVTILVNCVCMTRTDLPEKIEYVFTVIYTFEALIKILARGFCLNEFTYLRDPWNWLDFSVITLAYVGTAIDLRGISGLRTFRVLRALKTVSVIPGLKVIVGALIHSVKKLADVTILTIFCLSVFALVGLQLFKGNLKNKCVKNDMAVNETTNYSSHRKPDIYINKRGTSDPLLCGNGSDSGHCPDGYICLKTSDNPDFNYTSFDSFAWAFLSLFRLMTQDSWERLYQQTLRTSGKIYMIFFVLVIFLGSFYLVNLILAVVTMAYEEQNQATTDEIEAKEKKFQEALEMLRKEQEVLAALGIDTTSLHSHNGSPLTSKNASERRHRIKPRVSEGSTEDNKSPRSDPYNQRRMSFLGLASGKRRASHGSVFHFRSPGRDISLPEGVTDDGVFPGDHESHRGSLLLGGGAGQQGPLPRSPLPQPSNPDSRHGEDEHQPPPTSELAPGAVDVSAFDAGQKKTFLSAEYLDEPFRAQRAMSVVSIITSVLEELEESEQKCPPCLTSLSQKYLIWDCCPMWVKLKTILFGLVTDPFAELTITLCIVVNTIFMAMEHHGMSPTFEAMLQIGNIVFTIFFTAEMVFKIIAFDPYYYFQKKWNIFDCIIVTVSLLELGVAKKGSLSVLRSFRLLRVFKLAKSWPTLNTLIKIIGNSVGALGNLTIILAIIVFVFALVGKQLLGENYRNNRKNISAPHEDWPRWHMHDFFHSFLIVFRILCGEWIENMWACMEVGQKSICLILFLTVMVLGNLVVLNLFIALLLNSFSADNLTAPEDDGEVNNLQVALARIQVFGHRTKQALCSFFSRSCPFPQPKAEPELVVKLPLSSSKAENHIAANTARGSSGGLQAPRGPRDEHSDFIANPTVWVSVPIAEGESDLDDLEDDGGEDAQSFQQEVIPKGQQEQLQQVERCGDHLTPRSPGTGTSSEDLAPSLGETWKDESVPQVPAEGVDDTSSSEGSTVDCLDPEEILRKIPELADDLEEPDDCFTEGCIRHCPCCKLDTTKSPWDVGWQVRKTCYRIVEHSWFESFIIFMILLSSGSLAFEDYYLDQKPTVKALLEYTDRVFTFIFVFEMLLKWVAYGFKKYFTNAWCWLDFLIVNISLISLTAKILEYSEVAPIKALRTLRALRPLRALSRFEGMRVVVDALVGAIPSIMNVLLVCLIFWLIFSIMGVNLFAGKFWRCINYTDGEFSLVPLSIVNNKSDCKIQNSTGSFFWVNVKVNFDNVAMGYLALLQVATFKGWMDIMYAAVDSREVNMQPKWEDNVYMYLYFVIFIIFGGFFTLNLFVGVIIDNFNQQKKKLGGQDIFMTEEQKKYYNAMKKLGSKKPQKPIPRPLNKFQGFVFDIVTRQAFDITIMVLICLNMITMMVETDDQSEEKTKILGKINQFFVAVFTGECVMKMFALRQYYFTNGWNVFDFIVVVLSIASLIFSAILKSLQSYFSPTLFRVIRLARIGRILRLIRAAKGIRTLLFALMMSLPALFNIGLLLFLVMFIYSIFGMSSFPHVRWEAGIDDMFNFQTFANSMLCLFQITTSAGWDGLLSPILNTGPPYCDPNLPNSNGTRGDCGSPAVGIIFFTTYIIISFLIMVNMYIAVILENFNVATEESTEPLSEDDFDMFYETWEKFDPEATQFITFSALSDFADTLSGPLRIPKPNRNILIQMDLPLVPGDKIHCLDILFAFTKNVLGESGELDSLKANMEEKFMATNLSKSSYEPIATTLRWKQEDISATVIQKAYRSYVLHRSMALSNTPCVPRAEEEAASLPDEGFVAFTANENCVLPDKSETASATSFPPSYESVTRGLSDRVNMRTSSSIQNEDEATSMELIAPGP

On to `NS(=O)(=O)c1cc(NC(=O)c2cc(Cl)c(C(F)(F)F)cc2N2CCCC(F)(F)CC2)ccn1` [Example 31, 5-chloro-2-(4,4-difluoroazepan-1-yl)-N-(2-sulfamoylpyridin-4-yl)-4-trifluoromethylbenzamide, reference compound], for which, at hNav1.8, the inhibition at 0.1 µM came out at 97.1%. This molecule returned a solubility (kinetic) at 2 h in data set [1] of 0.69 µM (≈ 0.354 µg/mL). Further, in data set [2], the “Inhibition of mechanical hyperalgesia induced by postoperative pain model” value was “inhibited mechanical hyperalgesia”.
As for `CS(=N)(=O)c1cc(NC(=O)c2cc3ccccc3nc2N2CCCC(F)(F)CC2)ccn1` (stereo not shown) [Example 26, 2-(4,4-difluoroazepan-1-yl)-N-(2-(S-methylsulfonimidoyl)pyridin-4-yl)quinoline-3-carboxamide], at hNav1.8, the inhibition at 0.1 µM came to 91.5%. Also, the half-maximal inhibitory concentration (IC50) at Human Nav1.8 ion channel came out at 8 nM. In addition, in [1], the solubility (kinetic) at 2 h stood at 127 µM (≈ 58.4 µg/mL). The half-life at 1 µM in [3] is 1.17 h.
Take `COc1ccc(Cl)c(-c2ccc(NC(=O)c3ccnn3C)nc2N)c1` [PF-04531083]: the Activity versus placebo result with postoperative toothache is on record as “did not show better activity than placebo”.
On to `CNC(=O)c1ccc(-c2cc(Cl)cc(Cl)c2Cl)c(N)n1` [PF-01247324], for which the Pain relief entry in the data set on CFA and SNL models is “significant pain relief”.
As to `COc1cc(NC(=O)c2ccc(-c3ccc(Cl)cc3)o2)cc(OC)c1` [Example A-803467], the “Pain relief effect compared with the model group” value in the data set on animal models of pain is listed as “exceeding 50%”. Further, in data set [4] (local injection of plantar), the “Duration of efficacy versus lidocaine” value was “lasted longer” and the Efficacy versus lidocaine entry is listed as “equivalent”. Also, the Efficacy versus lidocaine entry in data set [4] (systemic administration) is “superior to lidocaine”.
